# Measurements taken from patent US8415312B2, “Compound which is a nystatin derivative” (Biosergen AS, priority 2007, dated 2013).
# Key:
# Test in all cases: Antifungal susceptibility study (1), broth microdilution MIC
# Format in all cases: cell-based
# [1] = system: Aspergillus niger ATCC 16404; conditions: lowest concentration preventing any visible growth, read at 48 hours, 35° C., RPMI 1640 pH 7.0
# Protocol: (§1) ACROS ORGANICS, New Jersey, USA), pH 7.0, was used in study. […] Then these DMSO solutions were diluted 50-fold (first 10-fold and then 5-fold) in the test medium. […] The solutions were prepared just before using. The organisms used for susceptibility testing were: Candida albicans ATCC 14053, Cryptococcus humicolus ATCC 9949, Aspergillus niger ATCC 16404 and Fusarium oxysporum VKM F-140 (=CMI, IMI 90473). Organisms were stored on potato dextrose agar […] 50% glycerol solution at -70° C. For short-term storage, stock cultures were stored on agar […] 4° C. The cultures of yeasts were sub-cultured onto Sabouraud dextrose (SAB) agar and incubated for 24 hours at 35° C. (Candida albicans) or for 48 hours at 25° C. (Cryptococcus humicolus) to obtain a freshly grown pure culture. The cultures of moulds were sub-cultured onto potato dextrose agar and incubated for 7 days at 35° C. […] (Fusarium oxysporum) to ensure maximum sporulation. […] Finally, the suspensions were vortexed for 15 s to break up clumps of cells and then filtered through four layers of sterile gauze. The densities of conidial spore suspensions was measured at 530 nm and adjusted to 0.09-0.11 for Aspergillus niger and 0.15-0.17 for Fusarium oxysporum. These suspensions were diluted 1:50 with the standard medium. […] Inoculum quantitation was performed by plating dilution of the inoculum on Sabouraud dextrose agar to determine the viable number of CFU per milliliter. Sterile 96-well flat-bottomed microtitration plates were used for testing. 100 μl of diluted inocula were dispensed into each microdilution well containing 100 μl of the double dilutions of compounds. Drug-free and yeast/mould-free controls were included. Microdilution trays were incubated at 35° C. (Candida albicans and moulds) or 25° C. (Cryptococcus humicolus) without agitation and observed for the presence or absence of visible growth. […] Minimal inhibitory concentrations (MICs) were read at 48 hours.
# [2] = system: Fusarium oxysporum VKM F-140; conditions: lowest concentration preventing any visible growth, read at 48 hours, 35° C., RPMI 1640 pH 7.0
# Protocol: as §1
# [3] = system: Candida albicans ATCC 14053; conditions: lowest concentration preventing any visible growth, read at 48 hours, 35° C., RPMI 1640 pH 7.0
# Protocol: (§2) ACROS ORGANICS, New Jersey, USA), pH 7.0, was used in study. […] Then these DMSO solutions were diluted 50-fold (first 10-fold and then 5-fold) in the test medium. […] The solutions were prepared just before using. The organisms used for susceptibility testing were: Candida albicans ATCC 14053, Cryptococcus humicolus ATCC 9949, Aspergillus niger ATCC 16404 and Fusarium oxysporum VKM F-140 (=CMI, IMI 90473). Organisms were stored on potato dextrose agar […] 50% glycerol solution at -70° C. For short-term storage, stock cultures were stored on agar […] 4° C. The cultures of yeasts were sub-cultured onto Sabouraud dextrose (SAB) agar and incubated for 24 hours at 35° C. (Candida albicans) or for 48 hours at 25° C. (Cryptococcus humicolus) to obtain a freshly grown pure culture. The cultures of moulds were sub-cultured onto potato dextrose agar and incubated for 7 days at 35° C. […] (Fusarium oxysporum) to ensure maximum sporulation. […] Inoculum quantitation was performed by plating dilution of the inoculum on Sabouraud dextrose agar to determine the viable number of CFU per milliliter. Sterile 96-well flat-bottomed microtitration plates were used for testing. 100 μl of diluted inocula were dispensed into each microdilution well containing 100 μl of the double dilutions of compounds. Drug-free and yeast/mould-free controls were included. Microdilution trays were incubated at 35° C. (Candida albicans and moulds) or 25° C. (Cryptococcus humicolus) without agitation and observed for the presence or absence of visible growth. […] Minimal inhibitory concentrations (MICs) were read at 48 hours.
# [4] = system: Cryptococcus humicolus ATCC 9949; conditions: lowest concentration preventing any visible growth, read at 48 hours, 25° C., RPMI 1640 pH 7.0
# Protocol: as §2
smiles,measurement,setting,value
CC1C=CC=CC=CC=CC=CC=CC=CC(OC2OC(C)C(O)C(NC(=O)CN(C)C)C2O)CC2OC(O)(CC(O)C(O)CCC(O)CC(O)CC(O)CC(=O)OC(C)C(C)C1O)CC(O)C2C(=O)NCCCO (stereo not shown) [Compound 39],MIC Aspergillus niger ATCC 16404,[1],2 µg/mL
same,MIC Fusarium oxysporum VKM F-140,[2],16 µg/mL
same,MIC Candida albicans ATCC 14053,[3],1 µg/mL
same,MIC Cryptococcus humicolus ATCC 9949,[4],1 µg/mL
"CC1O[C@@H](O[C@H]2/C=C/C=C/C=C/C=C/C=C/C=C/C=C/[C@H](C)[C@@H](O)[C@@H](C)[C@H](C)OC(=O)C[C@H](O)C[C@H](O)C[C@H](O)CC[C@@H](O)[C@H](O)C[C@]3(O)C[C@H](O)[C@@H](C(=O)O)[C@H](C2)O3)[C@H](O)C(NC(=O)c2ccc(CN)cc2)[C@@H]1O (stereo partly shown) [Compound 47, N-(4-Aminomethylbenzoyl) S44HP]",MIC Aspergillus niger ATCC 16404,[1],4 µg/mL
same,MIC Fusarium oxysporum VKM F-140,[2],16 µg/mL
same,MIC Candida albicans ATCC 14053,[3],2 µg/mL
same,MIC Cryptococcus humicolus ATCC 9949,[4],2 µg/mL
CC1C=CC=CC=CC=CC=CC=CC=CC(OC2OC(C)C(O)C(N(Cc3ccc(N(C)C)cc3)Cc3ccc(N(C)C)cc3)C2O)CC2OC(O)(CC(O)C(O)CCC(O)CC(O)CC(O)CC(=O)OC(C)C(C)C1O)CC(O)C2C(=O)O (stereo not shown) [Compound 20],MIC Aspergillus niger ATCC 16404,[1],4 µg/mL
same,MIC Fusarium oxysporum VKM F-140,[2],>16 µg/mL
same,MIC Candida albicans ATCC 14053,[3],2 µg/mL
same,MIC Cryptococcus humicolus ATCC 9949,[4],2 µg/mL
CC1C=CC=CC=CC=CC=CC=CC=CC(OC2OC(C)C(O)C(NCC3(O)OCC(O)C(O)C3O)C2O)CC2OC(O)(CC(O)C(O)CCC(O)CC(O)CC(O)CC(=O)OC(C)C(C)C1O)CC(O)C2C(=O)NCCCO (stereo not shown) [Compound 36],MIC Aspergillus niger ATCC 16404,[1],4 µg/mL
same,MIC Fusarium oxysporum VKM F-140,[2],16 µg/mL
same,MIC Candida albicans ATCC 14053,[3],4 µg/mL
same,MIC Cryptococcus humicolus ATCC 9949,[4],4 µg/mL
COC(=O)C(NC(=O)C1C(O)CC2(O)CC(O)C(O)CCC(O)CC(O)CC(O)CC(=O)OC(C)C(C)C(O)C(C)C=CC=CC=CC=CC=CC=CC=CC(OC3OC(C)C(O)C(N)C3O)CC1O2)C(C)C (stereo not shown) [Compound 8],MIC Aspergillus niger ATCC 16404,[1],4 µg/mL
same,MIC Fusarium oxysporum VKM F-140,[2],8 µg/mL
same,MIC Candida albicans ATCC 14053,[3],2 µg/mL
same,MIC Cryptococcus humicolus ATCC 9949,[4],2 µg/mL
"CC1O[C@@H](O[C@H]2/C=C/C=C/C=C/C=C/C=C/C=C/C=C/[C@H](C)[C@@H](O)[C@@H](C)[C@H](C)OC(=O)C[C@H](O)C[C@H](O)C[C@H](O)CC[C@@H](O)[C@H](O)C[C@]3(O)C[C@H](O)[C@@H](C(=O)NCCN(C)C)[C@H](C2)O3)[C@H](O)C(NCC2(O)OC[C@@H](O)[C@H](O)[C@@H]2O)[C@@H]1O (stereo partly shown) [Compound 42, N-tagatopyronosyl S44HP DMAE amide]",MIC Aspergillus niger ATCC 16404,[1],1 µg/mL
same,MIC Fusarium oxysporum VKM F-140,[2],2 µg/mL
same,MIC Candida albicans ATCC 14053,[3],0.5 µg/mL
same,MIC Cryptococcus humicolus ATCC 9949,[4],1 µg/mL
COC(=O)C(C)NC(=O)C1C(O)CC2(O)CC(O)C(O)CCC(O)CC(O)CC(O)CC(=O)OC(C)C(C)C(O)C(C)C=CC=CC=CC=CC=CC=CC=CC(OC3OC(C)C(O)C(N)C3O)CC1O2 (stereo not shown) [Compound 10],MIC Aspergillus niger ATCC 16404,[1],4 µg/mL
same,MIC Fusarium oxysporum VKM F-140,[2],8 µg/mL
same,MIC Candida albicans ATCC 14053,[3],2 µg/mL
same,MIC Cryptococcus humicolus ATCC 9949,[4],2 µg/mL
